Experimental data taken from patent publication US20250381198A1 (Melt Pharmaceuticals, Inc., priority 2024, published 2025).

What was measured:
[1] = tested on: subjects undergoing cataract extraction with lens replacement (CELR); test: Phase 2: subjects completing the surgery (and without interruption); type: in vivo, human; conditions: Visit 2 (Day 1); full analysis set
Protocol: (§1) The number of subjects achieving analgesia response (observed) in the full analysis set was determined. Success in analgesia response was defined as NPRS<4 at the available at the available four intraoperative timepoints and a failure otherwise (e.g., any interoperative pain rescue was assumed to be a failure. Results are provided in TABLE 25. The number of subjects completing the surgery is provided in TABLE 26, and the number of subjects completing the surgery without interruption is provided in TABLE 27. For this measure, subjects completing the surgery without interruption (other than rescue medication) due to pain or anxiety were considered successes. The number of subjects requiring rescue sedative medication and those requiring analgesic medication are provided in TABLES 28 and 29, respectively. For all TABLES 25-29, p-Values between pairs of treatments were calculated and are provided.

[2] = tested on: subjects undergoing cataract extraction with lens replacement (CELR); test: Phase 2: subjects requiring rescue sedative medication; type: in vivo, human; conditions: Visit 2 (Day 1); full analysis set
Protocol: as §1

[3] = tested on: subjects undergoing cataract extraction with lens replacement (CELR); test: Phase 2: subjects requiring rescue analgesic medication; type: in vivo, human; conditions: Visit 2 (Day 1); full analysis set
Protocol: as §1

[4] = tested on: subjects undergoing cataract extraction with lens replacement (CELR); test: Phase 2: subjects wanting study drug again for a second surgery (11-point Likert scale); type: in vivo, human; conditions: for Want Study Drug Again, Mean / Want Study Drug Again, Median: 11-point Likert scale of 0 (not likely at all) to 10 (extremely likely), full analysis set
Source text: Post-operation, subjects were asked whether they would want the study drug again for a second surgery using an 11-point Likert scale of 0 (not likely at all) to 10 (extremely likely).

[5] = tested on: subjects undergoing cataract extraction with lens replacement (CELR); test: Phase 2: mean intraoperative analgesia by the numeric pain rating scale; conditions: for Intraoperative Numeric Pain Rating Scale, Mean / Intraoperative Numeric Pain Rating Scale, Median: full analysis set
Protocol: Mean intraoperative analgesia by the numeric pain rating scale (Min=0; Max=9) was assayed for each subject in the full analysis set at intraoperative timepoints: insertion of the speculum; corneal incision; insertion of phacoemulsion probe; insertion of the synthetic replacement lens. An average of the available timepoints was also calculated.

[6] = 11-point Likert scale, unpaired t-test
[7] = Average of Available Timepoints, adjusted for site (carry forward)
[8] = Average of Available Timepoints, adjusted for site (carry forward), repeated measures model with covariates for study center
[9] = Average of Available Timepoints, carry forward
[10] = Average of Available Timepoints, carry forward, repeated measures model
[11] = Average of Available Timepoints, observed
[12] = Average of Available Timepoints, observed, repeated measures model
[13] = Corneal incision, adjusted for site (carry forward)
[14] = Corneal incision, carry forward
[15] = Insertion of the phacoemulsion probe, adjusted for site (carry forward)
[16] = Insertion of the phacoemulsion probe, carry forward
[17] = Insertion of the phacoemulsion probe, observed
[18] = Insertion of the speculum, adjusted for site (carry forward)
[19] = Insertion of the speculum, carry forward
[20] = Insertion of the speculum, observed
[21] = Insertion of the synthetic replacement lens, adjusted for site (carry forward)
[22] = Insertion of the synthetic replacement lens, carry forward
[23] = Insertion of the synthetic replacement lens, observed
[24] = adjusted for site (carry forward), repeated measures model with covariates for study center
[25] = carry forward, repeated measures model
[26] = observed, repeated measures model

SMILES: Cc1ncc2n1-c1ccc(Cl)cc1C(c1ccccc1F)=NC2 [Midazolam 3 mg]
- Subjects Completing the Surgery without Interruption, No, % [1]: (0) %
- Subjects Completing the Surgery without Interruption, Yes, % [1]: (100.0) %
- Subjects Requiring Rescue Sedative Medication, Intraoperatively, % [2]: (8.6) %
- Subjects Requiring Rescue Sedative Medication, No, % [2]: (65.4) %
- Subjects Requiring Rescue Sedative Medication, Pre-operatively, % [2]: (25.9) %
- Subjects Requiring Rescue Sedative Medication, Yes, % [2]: (34.6) %
- Subjects Requiring Rescue Analgesic Medication, No, % [3]: (56.8) %
- Subjects Requiring Rescue Analgesic Medication, Yes, % [3]: (43.2) %
- Want Study Drug Again, Mean [4]: 8.4
- Want Study Drug Again, Median [4]: 10.0
- Want Study Drug Again, Mean Difference Versus Ketamine [4, 6]: 0.80
- Want Study Drug Again, Mean Difference Versus Placebo [4, 6]: 0.75
- Intraoperative Numeric Pain Rating Scale, Mean [5, 7]: 2.37
- Intraoperative Numeric Pain Rating Scale, Median [5, 7]: 2.00
- Intraoperative Numeric Pain Rating Scale, LS Mean [5, 8]: 2.12
- Intraoperative Numeric Pain Rating Scale, Mean [5, 9]: 2.37
- Intraoperative Numeric Pain Rating Scale, Median [5, 9]: 2.00
- Intraoperative Numeric Pain Rating Scale, LS Mean [5, 10]: 2.37
- Intraoperative Numeric Pain Rating Scale, Mean [5, 11]: 2.18
- Intraoperative Numeric Pain Rating Scale, Median [5, 11]: 2.00
- Intraoperative Numeric Pain Rating Scale, LS Mean [5, 12]: 2.46
- Intraoperative Numeric Pain Rating Scale, Mean [5, 13]: 1.8
- Intraoperative Numeric Pain Rating Scale, Median [5, 13]: 1.0
- Intraoperative Numeric Pain Rating Scale, Mean [5, 14]: 1.8
- Intraoperative Numeric Pain Rating Scale, Median [5, 14]: 1.0
- Intraoperative Numeric Pain Rating Scale, Mean ([5]; Corneal incision, observed): 1.8
- Intraoperative Numeric Pain Rating Scale, Median ([5]; Corneal incision, observed): 1.0
- Intraoperative Numeric Pain Rating Scale, Mean [5, 15]: 2.9
- Intraoperative Numeric Pain Rating Scale, Median [5, 15]: 3.0
- Intraoperative Numeric Pain Rating Scale, Mean [5, 16]: 2.9
- Intraoperative Numeric Pain Rating Scale, Median [5, 16]: 3.0
- Intraoperative Numeric Pain Rating Scale, Mean [5, 17]: 2.5
- Intraoperative Numeric Pain Rating Scale, Median [5, 17]: 2.0
- Intraoperative Numeric Pain Rating Scale, Mean [5, 18]: 1.1
- Intraoperative Numeric Pain Rating Scale, Median [5, 18]: 0.0
- Intraoperative Numeric Pain Rating Scale, Mean [5, 19]: 1.1
- Intraoperative Numeric Pain Rating Scale, Median [5, 19]: 0.0
- Intraoperative Numeric Pain Rating Scale, Mean [5, 20]: 1.1
- Intraoperative Numeric Pain Rating Scale, Median [5, 20]: 0.0
- Intraoperative Numeric Pain Rating Scale, Mean [5, 21]: 3.6
- Intraoperative Numeric Pain Rating Scale, Median [5, 21]: 4.0
- Intraoperative Numeric Pain Rating Scale, Mean [5, 22]: 3.6
- Intraoperative Numeric Pain Rating Scale, Median [5, 22]: 4.0
- Intraoperative Numeric Pain Rating Scale, Mean [5, 23]: 2.9
- Intraoperative Numeric Pain Rating Scale, Median [5, 23]: 3.0
- Numeric Pain Rating Scale, LS Mean Difference Versus Ketamine [5, 24]: 0.22
- Numeric Pain Rating Scale, LS Mean Difference Versus Placebo [5, 24]: −0.08
- Numeric Pain Rating Scale, LS Mean Difference Versus Ketamine [5, 25]: 0.20
- Numeric Pain Rating Scale, LS Mean Difference Versus Placebo [5, 25]: −0.12
- Numeric Pain Rating Scale, LS Mean Difference Versus Ketamine [5, 26]: 0.24
- Numeric Pain Rating Scale, LS Mean Difference Versus Placebo [5, 26]: −0.01

SMILES: CNC1(c2ccccc2Cl)CCCCC1=O (centres unmarked) [Ketamine 50 mg]
- Subjects Completing the Surgery without Interruption, No, % [1]: (6.3) %
- Subjects Completing the Surgery without Interruption, Yes, % [1]: (93.7) %
- Subjects Requiring Rescue Sedative Medication, Intraoperatively, % [2]: (6.3) %
- Subjects Requiring Rescue Sedative Medication, No, % [2]: (63.3) %
- Subjects Requiring Rescue Sedative Medication, Pre-operatively, % [2]: (30.4) %
- Subjects Requiring Rescue Sedative Medication, Yes, % [2]: (36.7) %
- Subjects Requiring Rescue Analgesic Medication, No, % [3]: (59.5) %
- Subjects Requiring Rescue Analgesic Medication, Yes, % [3]: (40.5) %
- Want Study Drug Again, Mean [4]: 7.6
- Want Study Drug Again, Median [4]: 10.0
- Want Study Drug Again, Mean Difference Versus Placebo [4, 6]: −0.05
- Intraoperative Numeric Pain Rating Scale, Mean [5, 7]: 2.16
- Intraoperative Numeric Pain Rating Scale, Median [5, 7]: 1.75
- Intraoperative Numeric Pain Rating Scale, LS Mean [5, 8]: 1.89
- Intraoperative Numeric Pain Rating Scale, Mean [5, 9]: 2.16
- Intraoperative Numeric Pain Rating Scale, Median [5, 9]: 1.75
- Intraoperative Numeric Pain Rating Scale, LS Mean [5, 10]: 2.16
- Intraoperative Numeric Pain Rating Scale, Mean [5, 11]: 2.00
- Intraoperative Numeric Pain Rating Scale, Median [5, 11]: 1.75
- Intraoperative Numeric Pain Rating Scale, LS Mean [5, 12]: 2.22
- Intraoperative Numeric Pain Rating Scale, Mean [5, 13]: 1.8
- Intraoperative Numeric Pain Rating Scale, Median [5, 13]: 1.0
- Intraoperative Numeric Pain Rating Scale, Mean [5, 14]: 1.8
- Intraoperative Numeric Pain Rating Scale, Median [5, 14]: 1.0
- Intraoperative Numeric Pain Rating Scale, Mean ([5]; Corneal incision, observed): 1.7
- Intraoperative Numeric Pain Rating Scale, Median ([5]; Corneal incision, observed): 1.0
- Intraoperative Numeric Pain Rating Scale, Mean [5, 15]: 2.5
- Intraoperative Numeric Pain Rating Scale, Median [5, 15]: 2.0
- Intraoperative Numeric Pain Rating Scale, Mean [5, 16]: 2.5
- Intraoperative Numeric Pain Rating Scale, Median [5, 16]: 2.0
- Intraoperative Numeric Pain Rating Scale, Mean [5, 17]: 2.1
- Intraoperative Numeric Pain Rating Scale, Median [5, 17]: 2.0
- Intraoperative Numeric Pain Rating Scale, Mean [5, 18]: 1.3.
- Intraoperative Numeric Pain Rating Scale, Median [5, 18]: 1.0
- Intraoperative Numeric Pain Rating Scale, Mean [5, 19]: 1.1
- Intraoperative Numeric Pain Rating Scale, Median [5, 19]: 1.0
- Intraoperative Numeric Pain Rating Scale, Mean [5, 20]: 1.1
- Intraoperative Numeric Pain Rating Scale, Median [5, 20]: 1.0
- Intraoperative Numeric Pain Rating Scale, Mean [5, 21]: 3.3
- Intraoperative Numeric Pain Rating Scale, Median [5, 21]: 3.0
- Intraoperative Numeric Pain Rating Scale, Mean [5, 22]: 3.3
- Intraoperative Numeric Pain Rating Scale, Median [5, 22]: 3.0
- Intraoperative Numeric Pain Rating Scale, Mean [5, 23]: 2.5
- Intraoperative Numeric Pain Rating Scale, Median [5, 23]: 2.0
- Numeric Pain Rating Scale, LS Mean Difference Versus Placebo [5, 24]: −0.30
- Numeric Pain Rating Scale, LS Mean Difference Versus Placebo [5, 25]: −0.32
- Numeric Pain Rating Scale, LS Mean Difference Versus Placebo [5, 26]: −0.26
